Laboratory results as given in patent US20240010683A1, “Peptide Inhibitors of Human Mitochondrial Fission Protein 1 and Methods of Use” (The Medical College of Wisconsin, Inc., priority 2020, published 2024).
“Also recorded” adds a separate entry of the source.

How the values were obtained:
HMEC-1 cells = assay: NO production and eNOS activation in HMEC-1 cells; format: cell-based, human; conditions: non-transfected HMEC-1 cells
Description: FIG. 14. Phosphorylation of eNOS at Ser1177 and NO production increased in HMEC-1 cells upon activation with Ca+2 ionophore A23187 (A) representative western blot of p-eNOS-Ser1177) and β-actin with and without addition of A23187.(B) Quantitative measure of p-eNOS-(Ser1177) treated with and without A23187 (P=0.03, n=6). (C) NO production as measured using DAF2-DA (5 uM) increased upon addition of A23187 (n=4, P=0.02).
FIG. 15. […] Cells exposed to L-NAME were incubated with L-NAME for 2 hours followed by a 15-minute incubation with DAF2-DA (5 uM) prior to measurement of fluorescence intensity.
Cells in Culture: To measure nitric oxide (NO) bioavailability in HMEC-1 cells and arterioles, a fluorescent NO marker, 4,5-diaminofluorescein diacetate (DAF2-DA from Cayman Chemical) was used. […] Fluorescence intensity was measured using a SPECTRAFluor Plus plate reader (Tecan, Morrisville, NC) using excitation and emission wavelengths of 485 nm and 535 nm, respectively. […] The arterioles were then washed with PBS buffer, mounted on a slide, and imaged by fluorescence microscopy. Untreated and unstained arterioles were used as controls for fluorescence background interference. Both treated and control vessels were measured using the same gain settings and the results were analyzed using Meta Morph 7.8 software (Universal imaging, West Chester, PA).

cardiac myocytes = conditions: rat model of T2DM (OLEFT), cited from earlier work
[1] = system: vessels from T2DM subjects; assay: Endothelium-dependent vasodilation to acetylcholine, resistance vessels from T2DM subjects; design: species or system human; conditions: for impaired endothelium-dependent vasodilation to acetylcholine: 5 mM glucose, 1 or 10 μM peptide
Source text: (§1) Human Resistance Artery Acquisition: Human resistance arteries from adipose samples were obtained from the upper outer quadrant of the gluteal adipose pad as previously described.^2,8,13,15,16 Briefly, following sterilization and anesthesia with 1% lidocaine, a 1-1.5 cm incision is made in the upper outer quadrant of the gluteal adipose pad. An approximately 8 cm^3 volume of adipose tissue was removed by sharp dissection. After achieving hemostasis, the wounds were closed with 1-2 absorbable deep dermal sutures and the epidermal layer closed using either Dermabond or steristrips.
(§2) Transfection of human resistance arteries with siRNA constructs was performed as previously described.^8,13 Briefly, resistance arteries dissected from adipose tissue were suspended in a culture myograph chamber (204 CM, DMT, Ann Arbor). One end of the vessel was sutured onto a glass pipette within a micro-organ chamber. Prior to suturing the second end of the arteriole to a glass pipette, Fis1 siRNA, Drp1 siRNA (20 nM in optiMEM using Lipofectamine RNAiMax, Invitrogen) or control scrambled siRNA (20 nM) were gently injected, into the vessel lumen. The loose end of the vessel is then tied onto another glass pipette, and the vessel is suspended in the chamber and placed on a myograph stage bathed in physiological buffer at 37° C. and pressurized to 60 mmHg. Following 4-6 hours of incubation, the siRNA is slowly washed out of the lumen over 24 hours at a low shear rate (□<5 dyn/cm^2).
(§3) Measurement of Endothelium-Dependent Vasoactivity: Transfected resistance arteries from healthy individuals were exposed to either normal glucose conditions (NG, glucose level 5 mM), 2 hours of low glucose (LG, glucose level 2.5 mM) or 6 hours of high glucose (HG, glucose level 33 mM). All studies in vessels from patients with T2DM were performed at 5 mM glucose. Vessels were pre-constricted approximately 50% of resting diameter with endothelin-1 (Sigma Aldrich, USA). The constricted arterioles are then exposed to acetylcholine (Ach) at serially increasing doses from 10^−10 to 10^−5 M, and changes in vessel diameter were measured using digital calipers and videomicroscopy. Following the 10^−5 M dose, vessels were exposed to 200 μM papaverine to test the smooth muscle reactivity. Following a 30-minute washout period, the same arterioles were re-constricted and incubated with L-NG-nitroarginine methyl ester (L-NAME, 100 μM), a direct inhibitor of nitric oxide synthase, for 30 minutes and vasodilation subsequently was remeasured following the exposure to Ach 10^−10 to 10^−5 M.

[2] = system: human resistance arteries; assay: NO bioavailability (DAF2-DA fluorescence) in human resistance arteries; conditions: healthy vessels, HG and LG
Description: Cells in Culture: To measure nitric oxide (NO) bioavailability in HMEC-1 cells and arterioles, a fluorescent NO marker, 4,5-diaminofluorescein diacetate (DAF2-DA from Cayman Chemical) was used. In a dark room, cells were incubated with or without 100 μM L-NAME for 2 hours followed by 15 minutes of incubation with DAF2-DA (5 μM) at 37° C. Fluorescence intensity was measured using a SPECTRAFluor Plus plate reader (Tecan, Morrisville, NC) using excitation and emission wavelengths of 485 nm and 535 nm, respectively. Human Resistance Arteries: Two vessels were obtained from a subset of healthy subjects and each vessel was cut in half to allow for four experimental conditions which included transfection with Fis1 siRNA or Drp1 siRNA with and without concomitant exposure to L-NAME for 30 minutes and transfection with scrambled siRNA control with and without concomitant exposure to L-NAME at room temperature. […] The arterioles were then washed with PBS buffer, mounted on a slide, and imaged by fluorescence microscopy. Untreated and unstained arterioles were used as controls for fluorescence background interference. Both treated and control vessels were measured using the same gain settings and the results were analyzed using Meta Morph 7.8 software (Universal imaging, West Chester, PA).

[3] = system: human resistance arteries; assay: Endothelium-dependent vasodilation to acetylcholine, resistance arteries from healthy subjects exposed to high or low glucose; conditions: for impaired endothelium-dependent vasodilation to acetylcholine: high glucose 33 mM six hours, 1-10 μM peptide
Source text: as §1, §2, §3

ApoE knockout mice = conditions: cited from earlier work
[4] = system: aortic endothelium of diabetic mice; conditions: cited from earlier work
[5] = system: resistance arterioles from healthy humans over-expressing Fis1 in the endothelium; assay: Endothelium-dependent vasodilation in resistance arterioles over-expressing Fis1; design: species or system human; conditions: 1 μM peptide, one hour of exposure
Description: FIG. 19. Pep213 can reverse impaired endothelium-dependnet vasodilation in resistance arterioles. One hour of exposure to pep213 attached to a tat sequence to improve cell penetration (1 μM pep213-tat) reverses impaired endothelium-dependent vasodilation in resistance arterioles from healthy humans over-expressing Fis1 in the endothelium (overexpression of human Fis1 achieved using lentiviral vector to transfect the vessel with a plasmid for endothelial-specific over-expression of human Fis1). 1 μM of a scrambled peptide using the same amino acids as pep213 in a random order has no effect on endothelium dependent vasodilation to acetylcholine. Pep213-tat induce improves endothelium-dependent vasodilation in an eNOS-dependent manner (as determined by the loss in acetylcholine induced endothelium-dependent vasodilation with the use of eNOS inhibitor L-NAME). N=5, P<0.001 overall. *P<0.05 at the indicated doses of acetylcholine. Ach-acetylcholine.
Further the peptide of the present invention, e.g., Pep213, can reverse impaired endothelium-dependent vasodilation in resistance arterioles. […] Pep213-tat induce improves endothelium-dependent vasodilation in an eNOS-dependent manner (as determined by the loss in acetylcholine induced endothelium-dependent vasodilation with the use of eNOS inhibitor L-NAME). […]

[6] = system: human microvascular endothelial cells (HMVEC); assay: NO bioavailability (DAF2-DA) in endothelial cells treated with peptide; format: cell-based; conditions: 1 μM peptide, one hour, 37° C.
Description: FIG. 17. The bioavailability of nitric oxide (NO) increased in human microvascular endothelial cells (HMVEC) treated with novel peptide pep213. HMVEC cells were treated with 1 μM pep213-tat for one hour at 37° C. and NO was measured with diaminofluorescein-2 diacetate (DAF2-DA) staining. N=3,* P=0.04.
Cells in Culture: To measure nitric oxide (NO) bioavailability in HMEC-1 cells and arterioles, a fluorescent NO marker, 4,5-diaminofluorescein diacetate (DAF2-DA from Cayman Chemical) was used. In a dark room, cells were incubated with or without 100 μM L-NAME for 2 hours followed by 15 minutes of incubation with DAF2-DA (5 μM) at 37° C. Fluorescence intensity was measured using a SPECTRAFluor Plus plate reader (Tecan, Morrisville, NC) using excitation and emission wavelengths of 485 nm and 535 nm, respectively. […] The arterioles were then washed with PBS buffer, mounted on a slide, and imaged by fluorescence microscopy. Untreated and unstained arterioles were used as controls for fluorescence background interference. Both treated and control vessels were measured using the same gain settings and the results were analyzed using Meta Morph 7.8 software (Universal imaging, West Chester, PA).

For `CNc1ccc2oc(C[C@H]3O[C@@]4(CC[C@H]3C)O[C@H]([C@H](C)C(=O)c3ccc[nH]3)[C@H](C)C[C@H]4C)nc2c1C(=O)O` [A23187], the “NO production (DAF2-DA fluorescence intensity)” value (HMEC-1 cells) was “significant increase; also recorded: increased” and the “eNOS phosphorylation at Ser1177” value (HMEC-1 cells) was “significant increase; also recorded: increased”.

For `OC[C@H]1O[C@@H](c2ccc(Cl)c(Cc3ccc(O[C@H]4CCOC4)cc3)c2)[C@H](O)[C@@H](O)[C@@H]1O` [Empagliflozin], the “mitochondrial superoxide dismutase, SOD2” value (cardiac myocytes; cardiac myocytes) is listed as “up-regulated”, the Fis1 over-expression (cardiac myocytes) is listed as “reduced” and the mitochondrial fission (cardiac myocytes) is listed as “reduced”.

With `COC(=O)[C@@H](N)CCCNC(=N)N[N+](=O)[O-]` [L-NAME, L-NG-nitroarginine methyl ester] the “effect of L-NAME on improvement seen with pep213-TAT” value ([1]; T2DM vessels, L-NAME 100 μM) was “abolished the improvements”, the “effect of L-NAME on favorable effect of Fis1 siRNA” value ([1]; vessels from diabetic subjects) was “completely attenuated” and the “effect of L-NAME on Fis1 siRNA increase in DAF2-DA fluorescence” value [2] was “completely abolished”. For the same compound, the “effect of L-NAME on protective effect of Fis1 siRNA” value ([3]; healthy vessels, HG and LG) was “completely blocked” and the “effect of L-NAME on improvement seen with pep213-tat” value ([3]; healthy vessels, high glucose, L-NAME 100 μM) was “abolished the improvements; also recorded: reversed all improvements”.

For `CN(C)C(=N)N=C(N)N` [Metformin], the atherosclerotic formation (ApoE knockout mice) is listed as “reduces”.

In the case of `N#C[C@@H]1CCCN1C(=O)CNC12CC3CC(CC(O)(C3)C1)C2` [vildagliptin], the NO production ([4]; aortic endothelium of diabetic mice) is given as “increasing”, the “Drp1 translocation from the cytosol” value ([4]; diabetic mice) is given as “reduces” and the ROS production ([4]; diabetic mice) is given as “reduces”. The “expression of Fis1 and Drp1” value ([4]; diabetic mice) was “reduces” and the mitochondrial fission ([4]; diabetic mice) was “reduces”.

For “YGRKKRRQRRRGSGSGSSHKHDPLPYPHFLL (Synthetic - Pep213 fused to TAT (pep213-TAT))”, the “impaired endothelium-dependent vasodilation to acetylcholine” value ([1]; T2DM vessels) was “reverses”, the “impaired endothelium-dependent vasodilation to acetylcholine” value ([1]; T2DM vessels, listed as Pep213-tat) was “reversed” and the “impaired endothelium-dependent vasodilation to acetylcholine” value ([1]; T2DM vessels, listed as Tat sequence-linked pep213) was “improved”. The “impaired endothelium-dependent vasodilation to acetylcholine” value ([1]; T2DM vessels, listed as pep213-TAT) was “significant improvement”, the “impaired endothelium-dependent vasodilation to acetylcholine” value [5] was “reverses” and the “papaverine response (smooth muscle reactivity)” value ([3]; 200 μM papaverine, healthy and T2DM vessels) was “did not impact”. For the same compound, the “impaired endothelium-dependent vasodilation to acetylcholine” value ([3]; healthy vessels) was “reversed”, the “impaired endothelium-dependent vasodilation to acetylcholine” value ([3]; healthy vessels, listed as Pep213-tat) was “reversed” and the “impaired endothelium-dependent vasodilation to acetylcholine” value ([3]; healthy vessels, listed as Tat sequence-linked pep213) was “improved”. For the same compound, the “impaired endothelium-dependent vasodilation to acetylcholine” value ([3]; healthy vessels, listed as pep213-TAT) was “significant improvement”, the “NO bioavailability (DAF2-DA fluorescence)” value [6] was “increased” and the “NO bioavailability (DAF2-DA fluorescence)” value ([6]; listed as pep213-TAT) was “significant increase”.
